The record followed here is PMC8138579, “Screening of Anti-Lipase Components of Artemisia argyi Leaves Based on Spectrum-Effect Relationships and HPLC-MS/MS” (Frontiers in Pharmacology, 2021).

The target in this assay is T1, Porcine pancreatic lipase (type II) (Sus scrofa, UniProt P00591).
T1 construct: gene PNLIP; native commercial porcine pancreas preparation (Sigma-Aldrich, type II), no added colipase stated; human 1LPA used only for docking
T1 sequence (P00591 1-450): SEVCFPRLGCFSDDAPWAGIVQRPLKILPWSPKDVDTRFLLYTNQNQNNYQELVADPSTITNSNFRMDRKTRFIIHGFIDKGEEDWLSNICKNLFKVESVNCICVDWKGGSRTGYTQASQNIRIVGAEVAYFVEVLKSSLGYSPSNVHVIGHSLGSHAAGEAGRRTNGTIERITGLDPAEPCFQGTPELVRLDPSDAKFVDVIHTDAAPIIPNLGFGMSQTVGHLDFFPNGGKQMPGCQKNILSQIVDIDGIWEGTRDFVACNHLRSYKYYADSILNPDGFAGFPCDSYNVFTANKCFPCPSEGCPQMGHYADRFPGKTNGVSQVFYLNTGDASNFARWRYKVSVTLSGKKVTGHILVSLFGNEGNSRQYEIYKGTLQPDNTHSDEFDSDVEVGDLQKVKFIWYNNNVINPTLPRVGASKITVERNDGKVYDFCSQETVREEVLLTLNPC
In words: fluorometric lipase assay, 4-methylumbelliferone release. Format: biochemical. The source says: fluorometric lipase assay, 4-methylumbelliferone release on Porcine pancreatic lipase (type II) | IC50 values of neochlorogenic acid, chlorogenic acid, isochlorogenic acid B and isochlorogenic acid A
As to `O=C(/C=C/c1ccc(O)c(O)c1)O[C@@H]1C[C@@](O)(C(=O)O)C[C@@H](O)[C@@H]1O` [P1, neochlorogenic acid], the IC50 was 429 µM.
The figure for `O=C(/C=C/c1ccc(O)c(O)c1)O[C@@H]1C[C@](O)(C(=O)O)C[C@@H](O)[C@H]1O` [P3, chlorogenic acid] is 322 µM.
Take `O=C(/C=C/c1ccc(O)c(O)c1)O[C@H]1[C@H](O)C[C@](O)(C(=O)O)C[C@H]1OC(=O)/C=C/c1ccc(O)c(O)c1` [P7, isochlorogenic acid B]: the IC50 was 234 µM.
The figure for `O=C(/C=C/c1ccc(O)c(O)c1)O[C@@H]1C[C@](O)(C(=O)O)C[C@@H](OC(=O)/C=C/c2ccc(O)c(O)c2)[C@H]1O` [P8, isochlorogenic acid A] is 157 µM.
